Reference: ChEMBL document CHEMBL5241089, “Matrix metalloproteinases inhibitors in idiopathic pulmonary fibrosis: Medicinal chemistry perspectives” (Eur J Med Chem, 2021)

Columns and labels:
Stromelysin-2 [1] = biological target: T1, Stromelysin-2 (Homo sapiens, UniProt P09238); experiment: Inhibition of MMP-10 (unknown origin)
Stromelysin-2 [2] = biological target: T1, Stromelysin-2; experiment: Inhibition of MMP10 (unknown origin) using FRET peptide

T1 sequence (P09238 whole entry): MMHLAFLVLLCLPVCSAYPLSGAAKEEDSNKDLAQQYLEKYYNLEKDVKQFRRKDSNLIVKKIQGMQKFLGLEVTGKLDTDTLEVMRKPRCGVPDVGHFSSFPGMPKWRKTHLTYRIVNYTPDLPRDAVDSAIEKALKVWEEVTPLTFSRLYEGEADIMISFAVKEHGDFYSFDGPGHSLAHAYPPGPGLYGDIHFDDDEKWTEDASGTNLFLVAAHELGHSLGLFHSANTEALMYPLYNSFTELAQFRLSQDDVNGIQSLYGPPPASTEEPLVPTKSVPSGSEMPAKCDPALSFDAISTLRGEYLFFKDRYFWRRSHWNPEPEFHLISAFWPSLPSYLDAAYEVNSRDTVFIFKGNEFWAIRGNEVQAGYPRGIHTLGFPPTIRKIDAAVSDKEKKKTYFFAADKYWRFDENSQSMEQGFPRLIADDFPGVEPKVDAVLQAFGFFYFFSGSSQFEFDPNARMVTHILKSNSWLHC

IC50 (Stromelysin-2 [1]) [µM]	IC50 (Stromelysin-2 [2]) [µM]	Structure (SMILES)
0.024		CC(=O)N1c2nc(C)cc(=O)n2[C@H](c2ccc(Br)cc2)N1C(C)=O
	1.2	O=C(O)CCCCCCCCOc1ccc(CC(=O)Nc2ccc3c(c2)C(=O)N(Cc2ccccc2)C3=O)cc1
